The source made the active and inactive calls. No cut-off for these calls is given here.

We go through one compound from ChEMBL document CHEMBL4371054, “Dual inhibition of Kif15 by oxindole and quinazolinedione chemical probes” (Bioorg Med Chem Lett, 2019).

In assay [1] the target is T1, Kinesin-like protein KIF15 (Homo sapiens, UniProt Q9NS87).
T1 sequence (Q9NS87 whole entry): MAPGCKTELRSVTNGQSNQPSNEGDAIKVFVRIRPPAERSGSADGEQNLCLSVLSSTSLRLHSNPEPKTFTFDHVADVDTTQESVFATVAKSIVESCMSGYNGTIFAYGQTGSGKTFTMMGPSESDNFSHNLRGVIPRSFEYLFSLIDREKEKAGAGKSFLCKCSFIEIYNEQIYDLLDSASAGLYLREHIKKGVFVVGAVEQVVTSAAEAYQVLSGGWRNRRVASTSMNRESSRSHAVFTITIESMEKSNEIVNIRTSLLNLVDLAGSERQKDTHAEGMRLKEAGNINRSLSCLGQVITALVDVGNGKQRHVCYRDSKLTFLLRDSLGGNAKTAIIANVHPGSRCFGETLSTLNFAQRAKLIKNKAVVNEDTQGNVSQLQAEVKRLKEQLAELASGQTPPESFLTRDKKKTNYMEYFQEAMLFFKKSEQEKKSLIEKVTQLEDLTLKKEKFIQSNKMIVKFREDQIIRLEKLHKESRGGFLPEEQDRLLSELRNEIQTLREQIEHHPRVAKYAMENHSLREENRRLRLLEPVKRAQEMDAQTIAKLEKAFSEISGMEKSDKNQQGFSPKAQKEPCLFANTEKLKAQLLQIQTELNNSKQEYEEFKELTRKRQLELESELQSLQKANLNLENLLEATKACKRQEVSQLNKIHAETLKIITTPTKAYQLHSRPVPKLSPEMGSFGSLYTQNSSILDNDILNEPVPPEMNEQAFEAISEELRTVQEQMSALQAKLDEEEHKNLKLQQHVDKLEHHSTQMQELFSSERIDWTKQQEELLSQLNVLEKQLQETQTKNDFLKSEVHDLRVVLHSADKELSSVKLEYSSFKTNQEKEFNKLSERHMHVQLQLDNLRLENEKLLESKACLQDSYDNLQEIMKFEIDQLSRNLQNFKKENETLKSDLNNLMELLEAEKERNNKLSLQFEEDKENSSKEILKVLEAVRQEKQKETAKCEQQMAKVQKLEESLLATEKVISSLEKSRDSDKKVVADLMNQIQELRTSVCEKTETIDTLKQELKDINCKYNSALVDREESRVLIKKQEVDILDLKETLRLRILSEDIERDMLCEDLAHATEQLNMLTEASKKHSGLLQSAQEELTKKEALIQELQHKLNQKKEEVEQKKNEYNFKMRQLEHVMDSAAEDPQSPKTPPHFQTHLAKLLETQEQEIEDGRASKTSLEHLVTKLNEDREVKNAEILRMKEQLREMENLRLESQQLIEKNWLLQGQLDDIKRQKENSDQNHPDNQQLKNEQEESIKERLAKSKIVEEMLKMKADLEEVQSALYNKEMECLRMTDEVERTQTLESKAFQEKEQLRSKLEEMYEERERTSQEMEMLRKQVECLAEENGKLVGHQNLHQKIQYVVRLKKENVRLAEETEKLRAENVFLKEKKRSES
As to the kind of experiment: Inhibition of recombinant His6-tagged Kif15 (N700 residues) (unknown origin) expressed in HeLa cells assessed as reduction in Alexa-594 labelled microtubule gliding measured every 2 secs for 20 secs by epifluorescence microscopic analysis. Type of assay: cell-based.

For assay [2], the target named is T2, Kinesin-like protein KIF15 (Homo sapiens) (UniProt Q9NS87).
T2 sequence (whole entry): T1 sequence (Q9NS87 whole entry)
As to the kind of experiment: ATP non-competitive inhibition of recombinant His6-tagged Kif15 ATPase activity (N700 residues) (unknown origin) expressed in HeLa cells at 0.5 to 2 uM using microtubule as substrate preincubated for 30 mins followed by varying levels of ATP addition by double reciprocal Lineweaver-Burk plot analysis.

For assay [3], the target named is T2, Kinesin-like protein KIF15 (Homo sapiens). Description: ATP non-competitive inhibition of recombinant His6-tagged Kif15 ATPase activity (N700 residues) (unknown origin) expressed in HeLa cells at 0.5 to 2 uM using varying levels of microtubule as substrate preincubated for 30 mins followed by ATP addition by double reciprocal Lineweaver-Burk plot analysis. Type of assay: cell-based.

As for `O=C1Nc2ccc(C(=O)c3ccco3)cc2/C1=C/c1cc(Cl)c(O)c(Cl)c1`, in assay [1], the IC50 (as a rule, the concentration needed to halve the response being measured) was found to be 750 nM. In addition, the inhibition result in assay [2] and in assay [3] was “Active” in each case.
